Test results as given in publication PMC10518255, “A first-in-class pan-lysyl oxidase inhibitor impairs stromal remodeling and enhances gemcitabine response and survival in pancreatic cancer” (Nature Cancer, 2023).
“And” between values parts separate entries of the source, which are not always exact repeats. Identical values can stand only once.

Key:
KPC PDAC tumors = test: Necrosis determined by H&E in end-point KPC tumors; type: in vivo; details: KPC tumours at endpoint; one value per mouse, 8 mice per cohort scored (Extended Data 6J)
Protocol: All tissues or matrices were fixed in 10% buffered formalin and embedded in paraffin. The 4-μm sections of samples were deparaffinized with xylene and rehydrated in graded ethanol washes. H&E staining and counterstaining were performed on a Leica autostainer.
Extended Data Fig. 6 PXS-5505 in combination with gemcitabine in a KPC model. a. Quantification of proliferating cells (Ki67 positive nuclear staining) in KPC tumors at end point, treated as indicated. 5 fields of view (500 μm × 500 μm) per mouse and 10 mice per cohort were scored. […] Scale bars = 100 μm b. Quantification of percent coverage of αSMA positive staining in KPC tumors at end point, treated as indicated. 3 fields of view (1000 μm × 1000 μm) per mouse and 10 mice per cohort were scored. […] Scale bars = 100 μm c. Quantification of percent coverage of PDGFR-ß positive staining in KPC tumors at end point, treated as indicated. 3 fields of view (1000 μm × 1000 μm) per mouse and 10 mice per cohort were scored. […] Scale bars = 100 μm d. Quantification of pMLC2 positive staining in stromal regions of KPC tumors at end point, treated as indicated. 3 fields of view (500 μm × 500 μm) per mouse and 10 mice per cohort were scored. […] Quantification of tumor vasculature (CD31 positive staining) in KPC tumors at end point, treated as indicated. 3 fields of view (1000 μm × 1000 μm) per mouse and 10 mice per cohort were scored. […]

TKCC10 human PDX tumors = test: TKCC10 human model, FITC-dextran perfusion (Extended Data Fig. 5f); type: in vivo, mouse; details: for FITC-dextran (10 kDa) signal quantification: Extended Data 5F, human PDXs, individual FOV
Protocol: Subcutaneous PDX studies were performed by implanting early passage PDX pieces (~4 mm^3) or TKCC10 CCs (1.5 × 10^6 cells per mouse in 100 μl PBS/Matrigel 1:1) into female (PDX) or male (TKCC10) 8-week-old immunocompromised nude Balb/c-Fox1nuAusb mice subcutaneously on the left flank. For the duration of the study, mice were kept in conventional caging with environmental enrichment, access to standard chow, water ad libitum and 12-h light–dark cycle at ambient temperature and humidity. Treatment began when tumors reached 150 mm^3, where each mouse was randomized into a treatment group and administered gemcitabine HCl (100 mg kg^−1 in saline) (Jomar Life Research) or vehicle control (0.9% saline) by i.p. injection twice weekly on day 2 and 4 of the treatment cycle until an ethical end point was reached. These included maximal tumor mass ≥10% of body weight, weight loss ≥20% from maximum body weight or tumor interfering with mobility and affecting access to food and water. […] Tumor size was monitored every second day by calipers. Tumor volume was calculated using the formula (length × width^2)/2. […]
FITC-dextran (10 kDa) was administered at 40 mg ml^−1 in saline via tail vain 2 h before culling. […] Images were quantified using Fiji Software for Integrated Density Signal.
Extended Data Fig. 5 PXS-5505 in combination with gemcitabine in vivo. a. […] Signal is defined as the enzyme activity in the aorta, while noise is measured in the presence of a high concentration (300 µM) BAPN to abolish any lysyl oxidase family activity. […] FITC-dextran (molecular weight: 10 kDa) signal quantification from KPC tumor end point from each treatment group (vehicle n = 3 biologically independent animals, PXS-5505 n = 5 biologically independent animals, Gem n = 5 biologically independent animals, PXS-5505 + Gem n = 5 biologically independent animals). […] P-values determined by Welchs t-test. […] Quantification of red birefringent (mature) collagen fibers from human PDXs at end point after 3 cycles of treatment, treated as indicated. […] P values determined by Welchs t-test. g. […]

SMILES | necrosis determined by H&E (KPC PDAC tumors) | FITC-dextran (10 kDa) signal quantification (TKCC10 human PDX tumors) | FITC-dextran signal (tumor perfusion) (TKCC10 human PDX tumors; TKCC10 model)
Nc1ccn([C@@H]2O[C@H](CO)[C@@H](O)C2(F)F)c(=O)n1 [Gem, gemcitabine] | 0 and 7.986 and 6.976 and 4.928 | 94281 and 105741 and 104921 and 268246 and 141904 and 94336 and 85811 and 123546 and 103971 and 163288 and 111668 and 293663 and 289768 and 460793 and 155579 and 95059 and 92172 and 111389 and 85819 and 99312 | significantly reduced FITC signal
Cl.Cl.NC/C=C(\F)CS(=O)(=O)c1cccc2cccnc12.O [PXS-5505, (Z)-3-fluoro-4-(quinolin-8-ylsulfonyl)but-2-en-1-amine dihydrochloride monohydrate] | 0 and 2.201 and 15.496 and 22.429 and 2.215 | 217149 and 705678 and 861620 and 155219 and 311738 and 1148786 and 651132 and 524503 and 645010 and 362873 and 336536 and 501004 and 447832 and 108773 and 210759 and 520769 and 406359 and 125675 and 423935 and 547504 | 
